“Also recorded” adds a separate entry of the source.
Legend:
[1] = Lipophilicity log D (pH 7.4), shake-flask method; format: physicochemical; conditions: 1-octanol / PBS pH 7.4
Experimental: The lipophilic/hydrophilic character of [^61Cu]Cu-NODAGA-PSMA I&T was assessed by the determination of the distribution coefficient (D), expressed as log D at physiological pH (log D (pH 7.4)), between an aqueous and an organic phase following the “shake-flask” method. [^61Cu]Cu-NODAGA-PSMA I&T (1 μM) was added to a 50:50 pre-saturated mixture solution of 1-octanol and phosphate-buffered saline (PBS pH 7.4). The mixture was vortexed for 30 min and then centrifuged at 3000 rpm to achieve phase separation. Aliquots from each phase were collected and measured in a gamma counter. The distribution coefficient was calculated as the average logarithmic values of the ratio between the radioactivity in the organic and the PBS phase.

PSMA-expressing tissues = test system: PSMA-expressing tissues
Experimental: The specificity of [^61Cu]Cu-NODAGA-PSMA I&T for PSMA-expressing tissues was evaluated in LNCaP xenograft mice through a blocking study. The mice were first administered with 1.3 μmol (300 μg) of 2-PMPA as a blocking agent, followed by an intravenous injection of 4-8 MBq ([…]) [^61Cu]Cu-NODAGA-PSMA I&T diluted to 100 μL in saline in the tail vein. The animals (n=4) were sacrificed 1 hour post-injection, and the organs were collected, weighed and counted in a gamma counter as already described. The results are expressed as a percentage of injected activity per gram (% IA/g) as presented in Table 27 and are compared with the results obtained from biodistribution studies.
PET/CT imaging was also performed at 1 hour post-injection.

PSMA-expressing tumors = target: T1, PSMA-expressing tumors (Homo sapiens, UniProt Q04609); assay: First-in-human PET/CT study; format: in vivo; conditions: 104 MBq i.v., imaging at 3 hours, patient with metastatic prostate cancer
T1 construct: administered intravenously to a patient with known metastatic prostate cancer; from tissue; host or cells: osseous and hepatic metastases of a patient with metastatic prostate cancer
T1 sequence (Q04609 whole entry): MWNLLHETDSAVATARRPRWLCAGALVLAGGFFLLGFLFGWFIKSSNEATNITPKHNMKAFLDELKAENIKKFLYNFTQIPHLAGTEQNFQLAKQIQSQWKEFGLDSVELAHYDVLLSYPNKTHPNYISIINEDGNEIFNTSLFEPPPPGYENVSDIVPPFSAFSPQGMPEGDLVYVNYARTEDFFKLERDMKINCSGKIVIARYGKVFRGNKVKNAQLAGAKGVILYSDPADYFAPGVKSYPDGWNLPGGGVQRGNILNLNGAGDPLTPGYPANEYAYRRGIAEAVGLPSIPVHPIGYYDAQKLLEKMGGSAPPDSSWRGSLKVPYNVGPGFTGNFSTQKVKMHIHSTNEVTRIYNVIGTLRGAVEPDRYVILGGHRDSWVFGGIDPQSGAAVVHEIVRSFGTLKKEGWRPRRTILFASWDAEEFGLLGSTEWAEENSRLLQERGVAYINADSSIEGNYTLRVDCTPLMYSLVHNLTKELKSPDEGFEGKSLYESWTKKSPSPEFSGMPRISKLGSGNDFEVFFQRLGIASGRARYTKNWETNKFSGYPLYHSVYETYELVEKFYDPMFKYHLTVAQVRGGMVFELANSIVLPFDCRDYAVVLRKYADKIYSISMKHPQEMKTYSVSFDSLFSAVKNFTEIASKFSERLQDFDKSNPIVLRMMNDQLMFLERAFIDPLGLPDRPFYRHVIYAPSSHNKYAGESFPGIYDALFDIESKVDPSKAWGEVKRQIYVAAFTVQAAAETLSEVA
Experimental: A [^61Cu]Cu-NODAGA-PSMA I&T dose of 104 MBq (2.81 mCi) was administered intravenously to a patient with known metastatic prostate cancer. The patient was co-injected with 10 mg furosemide (Lasix®, Sanofi-Aventis, Frankfurt, Germany).
Imaging was performed at 3 hours following radiotracer administration on a Biograph Vision 600 (Siemens, Germany) PET/CT scanner. Images were obtained from the skull to mid-thigh and reconstructed into multiplanar PT, CT, and fused PET/CT images. CT was used for attenuation correction.

SMILES: O=C([O-])CN1CCN(CC(=O)[O-])CCN([C@H](CCC(=O)N[C@H](Cc2ccc(O)c(I)c2)C(=O)N[C@H](Cc2ccccc2)C(=O)N[C@H](CCCCNC(=O)CCCCCCC(=O)NCCCC[C@H](NC(=O)N[C@@H](CCC(=O)O)C(=O)O)C(=O)O)C(=O)O)C(=O)O)CC1.[61Cu+2] [[^61Cu]Cu-NODAGA-PSMA I&T]
- log D (pH 7.4) [1]: −2.95±0.08
- Biodistribution with 2-PMPA blocking, Adrenal (PSMA-expressing tissues; 1 hour post-injection): 0.96±0.87 % IA/g
- Biodistribution with 2-PMPA blocking, Blood (PSMA-expressing tissues; 1 hour post-injection): 0.44 ± 0.50 % IA/g
- Biodistribution with 2-PMPA blocking, Bone (PSMA-expressing tissues; 1 hour post-injection): 0.39 ± 0.24 % IA/g
- Biodistribution with 2-PMPA blocking, Heart (PSMA-expressing tissues; 1 hour post-injection): 0.34 ± 0.27 % IA/g
- Biodistribution with 2-PMPA blocking, Intestine (PSMA-expressing tissues; 1 hour post-injection): 0.87 ± 0.50 % IA/g
- Biodistribution with 2-PMPA blocking, Kidneys (PSMA-expressing tissues; 1 hour post-injection): 4.59±0.50 % IA/g
- Biodistribution with 2-PMPA blocking, LNCaP-tumor (PSMA-expressing tissues; 1 hour post-injection): 0.68±0.54 % IA/g
- Biodistribution with 2-PMPA blocking, Liver (PSMA-expressing tissues; 1 hour post-injection): 1.29 ± 0.53 % IA/g
- Biodistribution with 2-PMPA blocking, Lung (PSMA-expressing tissues; 1 hour post-injection): 0.67 ± 0.40 % IA/g
- Biodistribution with 2-PMPA blocking, Muscle (PSMA-expressing tissues; 1 hour post-injection): 0.32 ± 0.36 % IA/g
- Biodistribution with 2-PMPA blocking, Pancreas (PSMA-expressing tissues; 1 hour post-injection): 0.29 ± 0.19 % IA/g
- Biodistribution with 2-PMPA blocking, Salivary glands (PSMA-expressing tissues; 1 hour post-injection): 0.51 ± 0.30 % IA/g
- Biodistribution with 2-PMPA blocking, Spleen (PSMA-expressing tissues; 1 hour post-injection): 0.33±0.16 % IA/g
- Biodistribution with 2-PMPA blocking, Stomach (PSMA-expressing tissues; 1 hour post-injection): 0.62 ± 0.28 % IA/g
- in vivo stability (transchelation) (PSMA-expressing tissues; LNCaP xenograft mice): stable in vivo, with limited transchelation phenomena
- radiotracer accumulation on PET/CT (PSMA-expressing tumors): multifocal osseous (arrows) and hepatic (arrowheads) metastases; also recorded: Radiotracer accumulation was noted in multifocal osseous and hepatic metastases

Source: patent publication US20260241046A1, “PROSTATE-SPECIFIC MEMBRANE ANTIGEN RECEPTOR-TARGETING RADIOPHARMACEUTICALS AND USES THEREOF” (Nuclidium AG, priority 2024, published 2026)
